Tests used:
C57Bl/6 mice [1] = assay: Locomotor activity after i.c.v. administration in naive and habituated mice; format: in vivo; conditions: for locomotor activity: naive and habituated mice, 60 min observation
Description: In view of the NPSR sites of expression and the prominent expression of the NPS precursor in LC area, we hypothesized that NPS may be involved in arousal and anxiety. To start this investigation, we tested the effects of NPS on locomotor activity in both naive and habituated mice (FIG. 7A).
(§1) Male C57Bl/6 mice (National Cancer Institute, Bethesda, MD), age 10-14 weeks, were group-housed (4 animals per cage) under controlled conditions (temperature 21±2° C.; relative humidity 50-60%; 12-hour light-dark cycle, lights on 6:00 AM) with free access to food and water. Prior to drug injections, mice were briefly anesthetized with halothane. NPS was dissolved in phosphate-buffered saline (PBS, pH 7.4) and injected i.c.v. (total volume: 2 μl) as described before (Laursen and Belknap, 1986). Mice were allowed to recover for 5 min and then placed in the observation apparatus.
(§2) Locomotion was monitored in rectangular plexiglass boxes (60×40×50 cm). Horizontal activity was measured over 60 min by 18×12 infrared sensors placed 2 cm above the floor. A second row of sensors at 8 cm above the floor was used to record rearing events. The imaginary central zone was defined as a 30×20 cm rectangle in the middle of each observation area. Data were collected using MatLab (Mathworks, Natick, Mass.). Experimental procedures for open field, elevated plus-maze and light-dark box were described previously (Köster et al., 1999). Marble burying was measured in mice placed individually in polypropylene cages (30×18×12 cm) containing 18 glass marbles (1.5 cm diameter) evenly spaced on 5 cm deep rodent bedding (bed-o'cob, The Andersons Inc., Maumee, Ohio) (Njung'e and Handley, 1991). No food or water was present during the observation period. Cages were covered with a metal grid and the number of marbles covered at least two-thirds was counted after 30 min.

Sprague-Dawley rats = assay: Sleep-wake EEG/EMG recording after i.c.v. administration in rats; format: in vivo; conditions: for share of first hour of recording spent in wakefulness: saline 45%
Description: Rats were implanted with a standard set of electrodes and electroencephalograms (EEG) and electromyograms (EMG) were recorded after i.c.v. administration of NPS. Polygraphic recordings of vigilance states indicate that rats treated with 0.1 nmole and 1.0 nmole of NPS spent up to 69% and 87%, respectively, of the first hour of recording in wakefulness, compared to 45% for saline treatment (F2,21=16.80; p<0.01) (FIG. 7B).
For sleep studies, adult male Sprague-Dawley rats (250-300 g) were implanted under halothane anesthesia (1-2%) with a stainless steel cannula for i.c.v. administration and a standard set of stainless steel screw electrodes for chronic sleep recordings as reported previously (Bourgin et al., 2000). Rats were injected with NPS or vehicle (5 μl) at the beginning of the light cycle and cortical activity was recorded over 6 hours. All animal experiments had been approved by the local IACUC committee and were done in accordance with federal regulations and guidelines on animal experimentation.

C57Bl/6 mice [2] = assay: Open field test; format: in vivo; conditions: naive mice, i.c.v.
Description: Naïve mice were tested in the open field, a paradigm of free exploratory behavior in a novel environment. […] In order to further study NPS effects on stress as it relates to anxiety, two additional tests were performed that are based on the natural aversion of rodents to open or unprotected spaces: the light-dark box and the elevated plus maze (FIG. 8B, C).
as §1, with “Mice were allowed to recover for 5 min and then placed in the observation apparatus.” left out
Locomotion was monitored in rectangular plexiglass boxes (60×40×50 cm). Horizontal activity was measured over 60 min by 18×12 infrared sensors placed 2 cm above the floor. […] Marble burying was measured in mice placed individually in polypropylene cages (30×18×12 cm) containing 18 glass marbles (1.5 cm diameter) evenly spaced on 5 cm deep rodent bedding (bed-o'cob, The Andersons Inc., Maumee, Ohio) (Njung'e and Handley, 1991). […] Cages were covered with a metal grid and the number of marbles covered at least two-thirds was counted after 30 min.

C57Bl/6 mice [3] = assay: Elevated plus maze; format: in vivo
Description: as §1, §2

NPSR Ile^107 = molecular target: T1, NPSR Ile^107 (Homo sapiens, UniProt Q6W5P4, N107I); assay: CRE-luciferase reporter gene assay, HEK 293 cells, NPSR Ile107; format: cell-based; conditions: transiently transfected HEK cells
T1 construct: The Ile^107 isoform of NPSR was generated by PCR using synthetic oligonucleotides and the Quik Change Site-Directed Mutagenesis kit from Stratagene; expressed in transfected cells
T1 sequence (Q6W5P4 1-371 N107I): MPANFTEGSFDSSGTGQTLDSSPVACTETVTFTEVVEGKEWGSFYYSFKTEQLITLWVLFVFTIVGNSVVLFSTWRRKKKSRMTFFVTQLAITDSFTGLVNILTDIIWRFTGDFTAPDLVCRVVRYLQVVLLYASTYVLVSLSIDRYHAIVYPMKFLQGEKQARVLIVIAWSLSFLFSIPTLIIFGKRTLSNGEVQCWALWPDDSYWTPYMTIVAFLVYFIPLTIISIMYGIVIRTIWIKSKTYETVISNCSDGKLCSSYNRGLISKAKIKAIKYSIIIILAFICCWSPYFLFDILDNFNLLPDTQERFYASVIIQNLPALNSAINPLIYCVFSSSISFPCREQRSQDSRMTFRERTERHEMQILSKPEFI
Excerpt: HEK 293 cells were stably transfected with a reporter gene containing 6 copies of a cAMP response element (CRE; sequence […]) in front of a luciferase reporter gene (Promega) cloned into pcDNA3.1 neo. One stable clone showing robust induction of reporter gene expression after forskolin challenge was chosen for further experiments. The different NPSR isoform cDNAs (cloned into pcDNA3.1 hygro) were transfected into these cells using lipofectamine and stable clones were selected. The same cells and procedures were also used for transient transfection. For induction of reporter gene expression cells were plated in 96-well plates and incubated with agonist for 5 hours in serum-free medium, followed by aspiration of the medium and cell lysis with 25 mM Tris-phosphate, pH 7.8, 2 mM dithiothreitol, 2 mM 1,2-diaminocyclohexane-N,N,N′,N′,-tetraacetic acid, 10% glycerol, 1% Triton X-100. After one freeze-thaw cycle aliquots of supernatant were transferred to white clear-bottom 96-well plates (Greiner) and luciferase content was quantified by bioluminescence (Luc-Screen, Applied Biosystems). Plates were counted in a scintillation counter using bioluminescence settings (MicroBeta, Wallac-Perkin Elmer).

[4] = system: Colo205 human colon cancer cells; assay: Cell proliferation, [3H]-thymidine incorporation in Colo205 cells; format: cell-based
Description: (§3) Cells were seeded in 24-well plates and grown overnight to 60-70% confluency. Following 24 h serum-starvation, 2 μCi of methyl-[^3H] thymidine was added together with increasing concentrations of NPS. 500 nM PGE2 served as a positive control. After 3 h incubation cells were washed 3 times with PBS and then lysed with 0.5 N NaOH. The lysate was neutralized with 0.5 N HCl and aliquots were counted in a liquid scintillation counter for incorporated radioactivity.

[5] = system: human colon cancer cell line DLD-1; assay: Cell proliferation, [3H]-thymidine incorporation in DLD-1 cells (negative control line); format: cell-based; conditions: no NPSR transcripts
Description: as §3

[6] = i.c.v., rats, compared with saline

With “NPS: neuropeptide S, endogenous NPSR ligand; species of the peptide not stated at the place of the result (SFRNGVGTGMKKTSFQRAKS)” the locomotor activity (C57Bl/6 mice [1]; 0.1 nmole i.c.v.) was “significant increase”, the locomotor activity (C57Bl/6 mice [1]; 1 nmole i.c.v.) was “significant increase” and the “total distance traveled, percentage of time moving, number of rearing events and center entries” value (C57Bl/6 mice [1]; 0.1 and 1 nmole i.c.v., mice) was “significantly increased”. The “share of first hour of recording spent in wakefulness” value (Sprague-Dawley rats; 0.1 nmole i.c.v., rats) was “up to 69%”, the “share of first hour of recording spent in wakefulness” value (Sprague-Dawley rats; 1.0 nmole i.c.v., rats) was no more than 87% and the “rebound in amount of non-REM sleep, increase vs. saline” value (Sprague-Dawley rats; fourth hour post injection, rats) was 48%. The “mean duration of wakefulness episodes” value (Sprague-Dawley rats; i.c.v., rats, compared to saline group) was “significant increase”, the “amount of REM sleep” value (Sprague-Dawley rats; [6]) was “significantly reduced” and the “amount of slow wave sleep stage 1 (SWS1)” value (Sprague-Dawley rats; [6]) was “significantly reduced”. For the same substance, the “amount of slow wave sleep stage 2 (SWS2)” value (Sprague-Dawley rats; [6]) was “significantly reduced”, the “rebound in amount of non-REM sleep, increase vs. saline” value (Sprague-Dawley rats; second hour post injection, rats) was 20% and the “duration of arousal effect” value (Sprague-Dawley rats; single i.c.v. administration) was “within the first hour post injection”. For the same substance, the “number of entries in the central zone” value (C57Bl/6 mice [2]; first 10 minutes) was “significantly increased”, the “ambulations in the outer zones of the open field” value (C57Bl/6 mice [2]; same doses) was “increased” and the “number of transitions from closed to open arms” value (C57Bl/6 mice [3]; 0.1 and 1 nmole i.c.v.) was “higher number of transitions”. The “time on the open arms” value (C57Bl/6 mice [3]; 0.1 and 1 nmole i.c.v.) was “significantly more time”, the “closed-closed transitions (general activity)” value (C57Bl/6 mice [3]; all doses i.c.v.) was “did not reach statistical significance” and the “maximum of reporter gene expression relative to NPSR WT or NPSR C-alt” value (NPSR Ile^107) was “about 2 fold”. The “doses producing maximal thymidine incorporation” value [4] was 0.1 to 10 nM, the thymidine incorporation ([4]; 3 h incubation) was “dose-dependent stimulation” and the thymidine incorporation [5] was “no NPS-dependent thymidine incorporation”.

— US9012407B2, “Therapies which act on neuropeptide S receptors” (The Regents of the University of California, priority 2004, dated 2015)
